The record followed here is ChEMBL document CHEMBL5096208, “Installation of Pargyline, a LSD1 Inhibitor, in the HDAC Inhibitory Template Culminated in the Identification of a Tractable Antiprostate Cancer Agent” (J Med Chem, 2021).

The term Tmax denotes the time from dosing to the highest level. The half-life is the time in which the quantity being followed falls by half. A word on the AUC(0-inf): it is total exposure, with the tail of the curve extrapolated. What is called IC50 is the concentration at which inhibition is half-maximal. One may read the bioavailability as the share of a dose that reaches the circulation, judged against a reference dose that is usually intravenous. A high value points to much systemic uptake. By GI50 is commonly meant the concentration at which growth is held to half of that of the control.

Data set [1] is described as follows: Metabolic stability in human hepatocyte assessed as parent compound remaining at 10 uM incubated for 240 mins by LC-MS/MS analysis. The data set is classed as ADME, cell-based. As to conditions: hepatocytes, read-out: Stability.
The nature of data set [2]: Tmax in Sprague-Dawley rat at 25 mg/kg, po formulated using SMEDDS administered once via gavage measured upto 24 hrs post dose by UPLC-MS/MS analysis. The data set is classed as ADME, organism-based. As to conditions: in vivo.
Data set [3] is filed under the species Homo sapiens. As to the kind of experiment: Selectivity ratio of IC50 for human HDAC8 to IC50 for human HDAC6.
A short description of data set [4]: Half life in Sprague-Dawley rat at 25 mg/kg, po administered once via gavage measured upto 24 hrs post dose by UPLC-MS/MS analysis. The data set is classed as ADME, organism-based. As to conditions: in vivo.
Data set [5] can be described thus: AUC (0 to infinity) in Sprague-Dawley rat at 25 mg/kg, po formulated using SMEDDS administered once via gavage measured upto 24 hrs post dose by UPLC-MS/MS analysis. The data set is classed as ADME, organism-based. Details: dose 25 mg/kg, time < 24 hrs, route po. As to conditions: in vivo.
For data set [6], the system named is PC-3. As to the kind of experiment: Antitumor activity against human PC-3 cells xenografted in athymic nude mouse assessed as tumor growth inhibition at 50 mg/kg, po qd measured upto 25 days by caliper method relative to control. The data set is classed as functional. As to conditions: PC-3, 600 h, time <= 25 day, read-out: TGI. For orientation: In xenograft studies the graft and the host belong to different species.

Data set [7] in a line: Metabolic stability in human hepatocyte assessed as half life at 10 uM by LC-MS/MS analysis. The data set is classed as ADME, cell-based. As to conditions: hepatocytes.
Data set [8] has as its target Lysine-specific histone demethylase 1A (Homo sapiens) (UniProt O60341). As to the kind of experiment: Inhibition of LSD1 (unknown origin) using […] as substrate at 1 uM incubated for 48 hrs followed by substrate addition and measured after 2 hrs by microplate reader analysis. As to conditions: time 50.0 hrs.
The subject of data set [9] is PC-3. As to the kind of experiment: Induction of cell death in LSD1 knockdown human PC-3 cells assessed as activation of procaspase-9 at 1.25 to 10 uM by Western blot analysis. The data set is classed as functional, cell-based. As to conditions: dose 1.25-10 µM. On the technique in general: Immunoblotting shows a protein as a band on a membrane.
For another data set, the system named is HUVEC. Put plainly: Cytotoxicity against HUVEC cells assessed as reduction in cell viability at upto 10 uM incubated for 48 hrs by MTT assay. The data set is classed as toxicity, cell-based. As to conditions: human. A general note: Formazan colour is commonly taken as a measure of viable cells.
Data set [10] has as its target T1, Amine oxidase [flavin-containing] B (Homo sapiens, UniProt P27338).
T1 sequence (P27338 whole entry): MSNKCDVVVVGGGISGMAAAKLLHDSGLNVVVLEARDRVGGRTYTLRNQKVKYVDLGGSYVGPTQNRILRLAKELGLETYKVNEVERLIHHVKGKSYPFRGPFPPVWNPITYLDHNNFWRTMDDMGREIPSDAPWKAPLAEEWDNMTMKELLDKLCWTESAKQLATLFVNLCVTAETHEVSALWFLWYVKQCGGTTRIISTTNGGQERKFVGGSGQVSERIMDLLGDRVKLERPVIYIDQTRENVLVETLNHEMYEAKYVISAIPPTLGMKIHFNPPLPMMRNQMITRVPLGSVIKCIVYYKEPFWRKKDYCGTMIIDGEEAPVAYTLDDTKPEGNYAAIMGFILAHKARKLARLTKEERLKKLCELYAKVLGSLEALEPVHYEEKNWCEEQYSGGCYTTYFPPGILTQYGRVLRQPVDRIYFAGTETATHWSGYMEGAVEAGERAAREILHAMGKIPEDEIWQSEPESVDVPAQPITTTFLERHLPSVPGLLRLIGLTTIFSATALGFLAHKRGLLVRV
Put plainly: Inhibition of human full length recombinant MAO-B expressed in insect cells using kynuramine as substrate. The data set is classed as cell-based.

The subject of data set [11] is PC-3. As to the kind of experiment: Upregulation of acetyl-histone H3 in human PC-3 cells at 0.625 to 5 uM by Western blot analysis. The data set is classed as functional, cell-based. As to conditions: dose 0.625-5 µM.
The species named for data set [12] is Homo sapiens. As to the kind of experiment: Selectivity ratio of IC50 for human HDAC2 to IC50 for human HDAC6.
Data set [13] can be described thus: Metabolic stability in Beagle dog hepatocyte assessed as parent compound remaining at 10 uM incubated for 240 mins by LC-MS/MS analysis. The data set is classed as ADME, cell-based, Canis lupus familiaris. As to conditions: hepatocytes, read-out: Stability.
A short description of data set [14]: Metabolic stability in Beagle dog hepatocyte assessed as parent compound remaining at 10 uM incubated for 30 mins by LC-MS/MS analysis. The data set is classed as ADME, cell-based, Canis lupus familiaris. As to conditions: hepatocytes, read-out: Stability.
Data set [15] is filed under the species Homo sapiens. As to the kind of experiment: Selectivity ratio of IC50 for […] IC50 for human full length recombinant MAO-B.
Data set [16] has as its target T2, Amine oxidase [flavin-containing] A (Homo sapiens, UniProt P21397).
T2 sequence (P21397 whole entry): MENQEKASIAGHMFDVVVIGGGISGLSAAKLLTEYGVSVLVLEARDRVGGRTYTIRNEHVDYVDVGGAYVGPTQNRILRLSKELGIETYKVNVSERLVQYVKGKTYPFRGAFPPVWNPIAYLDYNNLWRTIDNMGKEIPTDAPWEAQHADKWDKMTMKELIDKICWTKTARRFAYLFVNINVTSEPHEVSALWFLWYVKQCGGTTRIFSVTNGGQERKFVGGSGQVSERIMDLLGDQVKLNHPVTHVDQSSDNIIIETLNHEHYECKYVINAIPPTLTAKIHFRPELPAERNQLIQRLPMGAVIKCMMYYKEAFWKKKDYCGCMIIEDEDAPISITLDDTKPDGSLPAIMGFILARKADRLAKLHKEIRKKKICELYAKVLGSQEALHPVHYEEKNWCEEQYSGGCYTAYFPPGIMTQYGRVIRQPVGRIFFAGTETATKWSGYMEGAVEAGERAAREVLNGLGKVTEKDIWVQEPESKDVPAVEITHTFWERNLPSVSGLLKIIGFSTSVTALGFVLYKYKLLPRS
Put plainly: Inhibition of human full length recombinant MAO-A expressed in insect cells using kynuramine as substrate.

Data set [17] has as its system PC-3. Put plainly: Induction of apoptosis in human PC-3 cells at 1.25 to 10 uM incubated for 48 hrs by Western blot analysis. As to conditions: dose 1.25-10 µM. The data set is classed as functional, cell-based.
Data set [18] is described as follows: Metabolic stability in Sprague-Dawley rat hepatocyte assessed as intrinsic clearance at 10 uM by LC-MS/MS analysis. The data set is classed as ADME, cell-based. As to conditions: hepatocytes, read-out: CLH.
Data set [19] is described as follows: Oral bioavailability in Sprague-Dawley rat at 25 mg/kg formulated using SMEDDS administered once via gavage measured upto 24 hrs post dose by UPLC-MS/MS analysis. The data set is classed as ADME, organism-based. As to conditions: in vivo.
In the next data set the target is T3, Histone deacetylase 8 (Homo sapiens, UniProt Q9BY41).
T3 sequence (Q9BY41 whole entry): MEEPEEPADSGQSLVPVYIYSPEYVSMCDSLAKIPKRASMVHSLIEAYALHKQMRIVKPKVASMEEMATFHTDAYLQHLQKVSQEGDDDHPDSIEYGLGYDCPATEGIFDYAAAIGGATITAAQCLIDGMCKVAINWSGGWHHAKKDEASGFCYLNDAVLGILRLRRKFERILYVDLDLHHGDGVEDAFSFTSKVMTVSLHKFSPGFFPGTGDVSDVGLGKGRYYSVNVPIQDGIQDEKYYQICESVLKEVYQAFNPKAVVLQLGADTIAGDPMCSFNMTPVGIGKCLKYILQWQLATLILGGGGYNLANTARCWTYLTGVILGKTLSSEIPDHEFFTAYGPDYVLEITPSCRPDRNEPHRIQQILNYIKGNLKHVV
Put plainly: Inhibition of human HDAC8 (379 to 382 residues) using RHKAcKAc as flurogenic substrate.

Data set [20] is described as follows: Metabolic stability in Beagle dog hepatocyte assessed as intrinsic clearance at 10 uM by LC-MS/MS analysis. As to conditions: hepatocytes, read-out: CLH. The data set is classed as ADME, cell-based, Canis lupus familiaris.
The test system of another data set is DU-145. As to the kind of experiment: Antiproliferative activity against human DU-145 cells assessed as cell growth inhibition incubated for 48 hrs by MTT assay. The data set is classed as functional.

Molecules are shown by their SMILES. The source made the active and inactive calls. The rule behind the calls is not given here.

On to `C#CCN(C)Cc1cccc(NC(=O)CCCCCCC(=O)NO)c1`, for which the remaining at 4 h, 10 µM was found to be 83.3% in data set [1] and 46.6% in [13]. For the same molecule, the Tmax in data set [2] is 0.9 h. Further, the Ratio IC50 in the data set listed under Homo sapiens [3] was 10.5; in the data set listed under Homo sapiens [12], 77; in the data set filed under Homo sapiens [15], 84. The molecule also had a half-life in [4] of 3.4 h. The AUC(0-inf) in data set [5] was 596 ng·h/mL. Moreover, in the data set with PC-3 [6], the inhibition in vivo at 50 mg/kg worked out at 36.9%. Moreover, the half-life at 10 µM in [7] came to 13.3 h. In addition, in data set [8], the inhibition result is “Active”. Moreover, the result in the data set on PC-3 [9], in the data set on PC-3 [11] and in the data set with PC-3 [17] was Active. Further, in the data set with HUVEC, the Activity entry is “Non-Toxic”. Moreover, the IC50 worked out at 67000 nM in data set [10], 790 nM in data set [16] and 210 nM on Histone deacetylase 8. Besides, the remaining at 0.5 h, 10 µM in [14] amounted to 91.6%. The CLint scaled at 10 µM came to 90.2 mL/min/kg in [18] and 21.6 mL/min/kg in data set [20]. Besides, the bioavailability in data set [19] is 62.1%. For the same molecule, the GI50 in the data set with DU-145 was determined as 420 nM.
